Assay results as given in paper PMC8271926, “1,3,5-Triazine Nitrogen Mustards with Different Peptide Group as Innovative Candidates for AChE and BACE1 Inhibitors” (Molecules, 2021).
Read-outs that look alike come from different tables or passages of the source.

Columns and labels:
BACE1 [1] = conditions: Iraji et al.; cited from earlier work
[2] = biological target: T1, BACE1 (from equine serum) (Homo sapiens, UniProt P56817); assay: In vitro BACE1 inhibition, FRET assay; type: biochemical
T1 construct: purchased Sigma-Aldrich CS0010

[3] = biological target: T2, AChE (from electrophorus electricus) (Electrophorus electricus, UniProt O42275); assay: In vitro AChE inhibition, Ellman's colorimetric method; type: biochemical
T2 construct: purchased Sigma-Aldrich C3389

BACE1 [4] = conditions: Yazdani et al.; cited from earlier work
AChE = conditions: Jameel et al.; read-out: AChE inhibition IC50; cited from earlier work
[5] = cell-based assays; cited from earlier work
GSK-3β = conditions: in vitro; cited from earlier work
BACE-1 = conditions: in vitro; cited from earlier work
[6] = mean ± SD of three independent experiments, read-out: BACE1 IC50

T1 sequence (P56817 46-457 limits assumed): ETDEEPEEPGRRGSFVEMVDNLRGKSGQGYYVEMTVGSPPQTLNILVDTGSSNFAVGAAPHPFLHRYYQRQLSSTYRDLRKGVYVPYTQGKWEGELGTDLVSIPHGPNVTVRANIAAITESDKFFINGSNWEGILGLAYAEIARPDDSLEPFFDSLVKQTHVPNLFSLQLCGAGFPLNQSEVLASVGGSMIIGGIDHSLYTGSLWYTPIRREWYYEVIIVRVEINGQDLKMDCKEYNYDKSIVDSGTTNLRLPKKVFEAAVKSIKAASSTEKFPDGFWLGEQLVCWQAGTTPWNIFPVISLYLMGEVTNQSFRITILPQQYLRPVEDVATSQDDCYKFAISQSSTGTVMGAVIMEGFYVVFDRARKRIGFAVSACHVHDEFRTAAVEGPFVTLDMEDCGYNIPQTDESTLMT
T2 sequence (O42275 24-633): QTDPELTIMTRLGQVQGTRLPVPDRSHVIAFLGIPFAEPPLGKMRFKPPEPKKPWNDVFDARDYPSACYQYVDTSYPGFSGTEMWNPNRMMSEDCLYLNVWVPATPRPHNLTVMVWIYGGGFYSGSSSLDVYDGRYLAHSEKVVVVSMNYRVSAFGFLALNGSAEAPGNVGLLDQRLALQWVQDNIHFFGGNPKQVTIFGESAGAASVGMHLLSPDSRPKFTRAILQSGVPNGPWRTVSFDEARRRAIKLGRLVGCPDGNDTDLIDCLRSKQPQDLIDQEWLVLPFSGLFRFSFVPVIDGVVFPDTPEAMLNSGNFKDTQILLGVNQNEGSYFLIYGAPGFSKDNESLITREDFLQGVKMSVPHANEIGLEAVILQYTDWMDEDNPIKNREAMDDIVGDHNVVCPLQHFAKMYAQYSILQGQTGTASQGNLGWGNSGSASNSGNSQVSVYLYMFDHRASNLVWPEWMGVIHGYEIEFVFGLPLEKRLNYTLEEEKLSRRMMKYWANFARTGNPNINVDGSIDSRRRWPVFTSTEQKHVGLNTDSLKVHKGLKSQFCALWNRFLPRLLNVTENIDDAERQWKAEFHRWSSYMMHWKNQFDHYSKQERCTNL

| SMILES | IC50 [2, 6] | IC50 [3] | other results |
| --- | --- | --- | --- |
| Oc1ccc(/C=N/Nc2nnc(-c3cccs3)c(-c3cccs3)n2)c(O)c1 [H] |  |  | IC50 (BACE1 [1]): 0.91 µM |
| COC(=O)C(C)NC(=O)C(Cc1c[nH]c2ccccc12)Nc1nc(OC)nc(N2CCN(CCCl)CC2)n1 (stereo not drawn) [4g, 2-[4-(2-Chloroethyl)Piperazin-1-yl]-4-Methoxy-6-(NH-Trp-Ala-OMe)- 1,3,5- Triazine] | 28.1 ± 3.69 µM | 0.122 ± 0.014 µM |  |
| COC(=O)C(C)NC(=O)C(CCCCNC(=O)OC(C)(C)C)Nc1nc(OC)nc(N2CCN(CCCl)CC2)n1 (stereo not drawn) [4a, 2-[4-(2-Chloroethyl)Piperazin-1-yl]-4-Methoxy-6-(NH-Lys(Boc)-Ala -OMe)-1,3,5-Triazine] | 11.1 ± 2.29 µM | 0.055 ± 0.001 µM |  |
| ClCCN1CCN(c2nc(Nc3ccccc3)nc(N3CCN(CCCl)CC3)n2)CC1 [A] | 9 ± 0.22 µM | 0.051 ± 0.001 µM |  |
| Clc1ccc(Cn2cc(COc3ccc(/C=N/Nc4nnc(-c5ccccc5)c(-c5ccccc5)n4)cc3)nn2)cc1 [F] |  |  | IC50 (BACE1 [4]): 8.55 ± 3.37 µM |
| COC(=O)C(C)NC(=O)C(CC(=O)OC(C)(C)C)Nc1nc(OC)nc(N2CCN(CCCl)CC2)n1 (stereo not drawn) [4b, 2-[4-(2-Chloroethyl)Piperazin-1-yl]-4-Methoxy-6-(NH-Asp(OtBu)-Ala-OMe)-1,3,5-Triazine] | 33.8 ± 3.91 µM | 0.065 ± 0.002 µM |  |
| COC(=O)C(C)NC(=O)C(Cc1cn(C(=O)OC(C)(C)C)c2ccccc12)Nc1nc(OC)nc(N2CCN(CCCl)CC2)n1 (stereo not drawn) [4c, 2-[4-(2-Chloroethyl)Piperazin-1-yl]-4-Methoxy-6-(NH-Trp(Boc)-Ala-OMe)-1,3,5-Triazine] | 18.1 ± 2.69 µM | 0.114 ± 0.012 µM |  |
| COC(=O)C(C)NC(=O)C(Cc1cn(S(=O)(=O)c2ccc(C)cc2)cn1)Nc1nc(OC)nc(N2CCN(CCCl)CC2)n1 (stereo not drawn) [4h, 2-[4-(2-Chloroethyl)Piperazin-1-yl]-4-Methoxy-6-(NH-His(Ts)-Ala-OMe)-1,3,5-Triazine] |  |  | IC50 ([2]; read-out: BACE1 IC50, mean ± SD of three independent experiments): 14.2 ± 3.45 µM; IC50 ([3]; read-out: AChE IC50, AChE from electric eel, Ellman's method, mean ± SD of three independent experiments): 0.067 ± 0.003 µM |
| COC(=O)C(C)NC(=O)C(COCc1ccccc1)Nc1nc(OC)nc(N2CCN(CCCl)CC2)n1 (stereo not drawn) [4d, 2-[4-(2-Chloroethyl)Piperazin-1-yl]-4-Methoxy-6-(NH-Ser (Bn)-Ala -OMe) -1,3,5-Triazine] | 58.1 ± 9.69 µM | 0.387 ± 0.054 µM |  |
| COc1ccc(Nc2nc(Cl)nc(N3CCN(c4cc(C)nc5ccnn45)CC3)n2)cc1 [D] |  |  | IC50 (AChE): 0.092 µM |
| O=[N+]([O-])c1ccc(Cn2cc(COc3ccc(/C=N/Nc4nnc(-c5ccccc5)c(-c5ccccc5)n4)cc3)nn2)cc1 [G] |  |  | IC50 (BACE1 [4]): 11.4 ± 2.01 µM |
| COC(=O)C(C)NC(=O)C(C)(C)Nc1nc(OC)nc(N2CCN(CCCl)CC2)n1 (stereo not drawn) [4e, 2-[4-(2-Chloroethyl)Piperazin-1-yl]-4-Methoxy-6-(NH-Aib-Ala-OMe) -1,3,5 -Triazine] | 51 ± 7.99 µM | 0.789 ± 0.031 µM |  |
| COC(=O)C(C)NC(=O)C(CCCNC(=N)N[N+](=O)[O-])Nc1nc(OC)nc(N2CCN(CCCl)CC2)n1 (stereo not drawn) [4f, 2-[4-(2-Chloroethyl)Piperazin-1-yl]-4-Methoxy-6-(NH-Arg(NO2)-Ala-OMe) -1,3,5-Triazine] | 52 ± 8.55 µM | 1.44 ± 0.029 µM |  |
| NC1=NC(c2ccc(F)cc2)NC(=O)N1 (stereo not drawn) [E] |  |  | neuroprotective and neurogenic activities [5]: effective; neurotoxicity [5]: no neurotoxicity; IC50 (GSK-3β): 14.7 ± 0.78 µM; IC50 (BACE-1): 18.03 ± 0.01 µM |
| Cc1cccc(Nc2nc(Cl)nc(N3CCN(c4cc(C)nc5ccnn45)CC3)n2)c1 [C] |  |  | IC50 (AChE): 0.065 µM |
